Where two headings read alike, the source gives them in different places. Non-standard residues stand in square brackets, D forms with d. Residues, ends and D or L forms follow the SMILES beside them.
Assays:
[1] = tested on: Streptococcus pneumoniae (ATCC 6301); assay type: cell-based
Protocol: (§1) The antimicrobial activity of the peptides was determined using a broth dilution assay essentially as descried in the guidelines of the National Committee for […] (NCCLS) [National Committee for Clinical Laboratory Standards. Methods for dilution antimicrobial susceptibility tests for bacteria that grow aerobically. Fourth edition. Approved Standard (1997). Document M7-A4. […] The microdilution method has the advantages of requiring less amount of peptide for each assay and the possibility of multiple simultaneous inoculations and was used in most studies. Several of the strains of bacteria tested are further described in Table 3.
(§2) Preparation of peptide solutions. Stock peptide solutions were prepared in 5% DMSO in aq. sucrose (9%). Determination of peptide concentrations was done by quantitative HPLC analysis using known concentrations of internal standards and/or by measuring UV absorption of tryptophane-containing peptide solutions in H2O (λ=280 εTrp: 5690). Serial 2-fold dilutions were made in the above DMSO/aq. sucrose (9%) mixture with concentrations ranging approximately 400-2 μg/ml and aliquots were dispensed in test tubes (100 μl) for the macrodilution test or in microtiter plates (20 μl) for the microdilution assays.
(§3) Inoculum preparation. Overnight cultures of different microorganisms grown in suitable media were diluted 4000 times to an approximate inoculum size of 2.5×10^5 cfu/ml.
(§4) Macrodilution method. Macrodilution methods were performed using procedures similar to those described in the National Committee for Clinical Laboratory Standards. Methods for dilution antimicrobial susceptibility tests for bacteria that grow aerobically. Fourth edition. Approved Standard (1997). Document M7-A4. (NCCLS,Villanova, Pa., 1997). Two ml aliquots of the above inoculum were dispensed to test tubes containing different peptide solutions.
(§5) Microdilution method. Microdilution methods were performed using procedures similar to those described in the National Committee for Clinical Laboratory Standards. Methods for dilution antimicrobial susceptibility tests for bacteria that grow aerobically. Fourth edition. Approved Standard (1997). Document M7-A4.

[2] = tested on: Bacillus cereus ATCC 11778; assay type: cell-based
Protocol: as §1, §2, §3, §4, §5

murine red blood cells = assay: Red blood cell hemolysis; assay type: cell-based, mouse; conditions: for Hemolysis HD50: red cells of murine
How it was run: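 Washed murine erythrocytes at 5% in saline with 10% FBS were exposed to serial peptide dilutions for 30 min at 37° C. Supernatant absorbance at 560 nm was read, with saline as 0% and 1% Triton X-100 as 100% hemolysis.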

[3] = tested on: S. aureus (MRSA) ATCC 33591; assay type: cell-based, Staphylococcus aureus; conditions: for MRSA MIC / S. aureus (MRSA) MIC: ATCC 33591; for MRSA (in vitro activity): Table 9, media a: anti-microbial media-3 (AM-3)
How it was run: (§6)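 MICs come from NCCLS-style (M7-A4) dilution testing, mostly microdilution, with an inoculum near 2.5×10^5 cfu/ml from 4000-fold-diluted overnight cultures. Peptide series were 2-fold steps spanning roughly 400–2 μg/ml, prepared in 9% aqueous sucrose with 5% DMSO.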

[4] = tested on: vancomycin-resistant Enterococus faecalis (VRE)(ATCC 51575); assay type: cell-based, Enterococcus faecalis; design: key to VRE (in vitro activity): peptide concentration in μg/ml (broth dilution assay); conditions: for VRE MIC: ATCC 51575; for VRE (in vitro activity): Table 9, media a: AM-3
How it was run: as §6

E. coli JM109(DE3) = assay type: cell-based, Escherichia coli; conditions: JM109
Protocol: as §1, §2, §3, §4, §5

| Compound | S. pneum. MIC [1] [µg/mL] | B. cerius MIC [2] [µg/mL] | MRSA MIC ([3]; Table 10) | VRE MIC [4] [µg/mL] | E. coli MIC (E. coli JM109(DE3)) [µg/mL] | MRSA MIC [3] [µg/mL] | S. aureus (MRSA) MIC [3] [µg/mL] | Hemolysis HD50 (murine red blood cells) [µg/mL] | RBC Hemolysis (HD50) (murine red blood cells) | MRSA (in vitro activity) [3] | VRE (in vitro activity) [4] |
| --- | --- | --- | --- | --- | --- | --- | --- | --- | --- | --- | --- |
| CC(C)C[C@H]1NC(=O)[C@H](CCCCN)NC(=O)[C@@H](CC(C)C)NC(=O)[C@H](Cc2c[nH]c3ccccc23)NC(=O)[C@@H](CC(C)C)NC(=O)[C@H](Cc2c[nH]c3ccccc23)NC(=O)[C@@H](CC(C)C)NC(=O)[C@H](Cc2c[nH]c3ccccc23)NC1=O [SEQ ID NO:3, cyclo[-Lys-D-Leu-(Trp-D-Leu)3]] (cyclo(K[dL]W[dL]W[dL]W[dL])) | 50 | 50 | ppt | 80 | 100 | – | – | 20 | – | – | – |
| CC(C)C[C@H]1NC(=O)[C@H](Cc2c[nH]c3ccccc23)NC(=O)[C@@H](CO)NC(=O)[C@H](CCCCN)NC(=O)[C@@H](CO)NC(=O)[C@H](Cc2c[nH]c3ccccc23)NC(=O)[C@@H](CC(C)C)NC(=O)[C@H](Cc2c[nH]c3ccccc23)NC1=O [SEQ ID NO:5, cyclo-(D-Ser-Lys-D-Ser-Trp-D-Leu-Trp-D-Leu-Trp)] (cyclo(K[dS]W[dL]W[dL]W[dS])) | 30 | > 30 | – | 20 | 100 | 20 | 10 | – | 30 | 20 | 20 |
| CC(C)C[C@H]1NC(=O)[C@H](Cc2c[nH]c3ccccc23)NC(=O)[C@@H](CO)NC(=O)[C@H](Cc2c[nH]cn2)NC(=O)[C@@H]([C@H](C)O)NC(=O)[C@H](Cc2c[nH]c3ccccc23)NC(=O)[C@@H](CC(C)C)NC(=O)[C@H](Cc2c[nH]c3ccccc23)NC1=O [SEQ ID NO:6, cyclo-(D-Thr-His-D-Ser-Trp-D-Leu-Trp-D-Leu-Trp)] (cyclo(H[dS]W[dL]W[dL]W[dT])) | 100 | > 280 | – | 100 | 100 | 100 | 100 | – | 100 | 100 | 100 |
| CC(C)C[C@H]1NC(=O)[C@H](Cc2c[nH]c3ccccc23)NC(=O)[C@@H](CC(C)C)NC(=O)[C@H](Cc2c[nH]c3ccccc23)NC(=O)[C@@H](CC(=O)O)NC(=O)CNC(=O)[C@@H](CCCNC(=N)N)NC(=O)[C@H](Cc2c[nH]c3ccccc23)NC1=O [SEQ ID NO:7, RGDWLWLW] (cyclo([dR]G[dD]W[dL]W[dL]W)) | 70 | > 280 | – | 100 | 100 | 100 | 100 | – | 100 | 100 | 100 |
| CC(C)C[C@H]1NC(=O)[C@H](Cc2c[nH]c3ccccc23)NC(=O)[C@@H](Cc2c[nH]cn2)NC(=O)[C@H](Cc2c[nH]cn2)NC(=O)[C@@H](CO)NC(=O)[C@H](Cc2c[nH]c3ccccc23)NC(=O)[C@@H](CC(C)C)NC(=O)[C@H](Cc2c[nH]c3ccccc23)NC1=O [SEQ ID NO:15, SHHWLWLW] (cyclo([dS]H[dH]W[dL]W[dL]W)) | 40 | 11 | – | 50 | 100 | 30 | 20 | – | 20 | 30 | 50 |
| CC(C)C[C@H]1NC(=O)[C@H](Cc2c[nH]c3ccccc23)NC(=O)[C@@H](Cc2c[nH]cn2)NC(=O)[C@H](CCCCN)NC(=O)[C@@H](CCC(=O)O)NC(=O)[C@H](Cc2c[nH]c3ccccc23)NC(=O)[C@@H](CC(C)C)NC(=O)[C@H](Cc2c[nH]c3ccccc23)NC1=O [SEQ ID NO:16, cyclo-(D-Glu-Lys-D-His-Trp-D-Leu-Trp-D-Leu-Trp)] (cyclo(K[dH]W[dL]W[dL]W[dE])) | 50 | 85 | – | 100 | 100 | 100 | 100 | – | >100 | 100 | 100 |

Further lines, with some results ahead:

| S. pneum. MIC [1] [µg/mL] | B. cerius MIC [2] [µg/mL] | MRSA MIC ([3]; Table 10) | VRE MIC [4] [µg/mL] | E. coli MIC (E. coli JM109(DE3)) [µg/mL] | MRSA MIC [3] [µg/mL] | S. aureus (MRSA) MIC [3] [µg/mL] | Compound | Hemolysis HD50 (murine red blood cells) [µg/mL] | RBC Hemolysis (HD50) (murine red blood cells) | MRSA (in vitro activity) [3] | VRE (in vitro activity) [4] |
| --- | --- | --- | --- | --- | --- | --- | --- | --- | --- | --- | --- |
| 19 | 4 | – | 16 | 15 | 12 | 12 | CC(C)C[C@H]1NC(=O)[C@H](Cc2c[nH]c3ccccc23)NC(=O)[C@@H](Cc2c[nH]cn2)NC(=O)[C@H](CCCCN)NC(=O)[C@@H](Cc2c[nH]cn2)NC(=O)[C@H](Cc2c[nH]c3ccccc23)NC(=O)[C@@H](CC(C)C)NC(=O)[C@H](Cc2c[nH]c3ccccc23)NC1=O [SEQ ID NO:21, cyclo-(D-His-Lys-D-His-Trp-D-Leu-Trp-D-Leu-Trp)] (cyclo(K[dH]W[dL]W[dL]W[dH])) | – | 25 | 12 | 16 |
| 8 | 8 | – | 10 | 80 | 10 | 10 | CC(C)C[C@H]1NC(=O)[C@H](Cc2c[nH]c3ccccc23)NC(=O)[C@@H](CCCCN)NC(=O)[C@H](Cc2c[nH]cn2)NC(=O)[C@@H](CCCCN)NC(=O)[C@H](Cc2c[nH]c3ccccc23)NC(=O)[C@@H](CC(C)C)NC(=O)[C@H](Cc2c[nH]c3ccccc23)NC1=O [SEQ ID NO:22, KHKWLWLW] (cyclo([dK]H[dK]W[dL]W[dL]W)) | – | 30 | 10 | 10 |
| 80 | 75 | – | 100 | 20 | 100 | 80 | CC(=O)N[C@H](CCCCN)C(=O)N[C@@H](CCCCN)C(=O)N[C@H](CCCCN)C(=O)N[C@@H](Cc1c[nH]c2ccccc12)C(=O)N[C@H](CC(C)C)C(=O)N[C@@H](Cc1c[nH]c2ccccc12)C(=O)N[C@H](CC(C)C)C(=O)N[C@H](Cc1c[nH]c2ccccc12)C(N)=O [SEQ ID NO:25, Ac-KKKWLWLW-CONH2] (Ac-[dK]K[dK]W[dL]W[dL][dW]-NH2) | 100 | – | – | – |
| 5 | 10 | – | – | 35 | 10 | – | CC(C)C[C@@H]1NC(=O)[C@@H](Cc2c[nH]c3ccccc23)NC(=O)[C@H](CCCNC(=N)N)NC(=O)[C@@H](CCCNC(=N)N)NC(=O)[C@H](CCCNC(=N)N)NC(=O)[C@@H](Cc2c[nH]c3ccccc23)NC(=O)[C@H](CC(C)C)NC(=O)[C@@H](Cc2c[nH]c3ccccc23)NC1=O [SEQ ID NO:133, [RRRWLWLW]] (cyclo(R[dR]R[dW]L[dW]L[dW])) | 35 | – | – | – |

From US20050107289A1, “Anti-microbial peptides and compositions” (priority 2001, published 2005)
